In ChEMBL document CHEMBL4184177, “Synthesis and bioevaluation study of novel N-methylpicolinamide and thienopyrimidine derivatives as selectivity c-Met kinase inhibitors” (Bioorg Med Chem, 2018):

Tests used:
MCF7 = assay: cells; details: Homo sapiens, MCF7, 72 h
Description: Cytotoxicity against human MCF7 cells after 72 hrs by MTT assay

A549 = assay: Cytotoxicity against human A549 cells after 72 hrs by MTT assay; details: A549, 72 h
HepG2 = assay: cells; details: Homo sapiens, HepG2, 72 h
Description: Cytotoxicity against human HepG2 cells after 72 hrs by MTT assay

[1] = target: Hepatocyte growth factor receptor (Homo sapiens, UniProt P08581); assay: Inhibition of c-Met (unknown origin) using FAM-labeled peptide substrate after 10 mins by mobility shift assay
Sequence of Hepatocyte growth factor receptor (P08581 whole entry): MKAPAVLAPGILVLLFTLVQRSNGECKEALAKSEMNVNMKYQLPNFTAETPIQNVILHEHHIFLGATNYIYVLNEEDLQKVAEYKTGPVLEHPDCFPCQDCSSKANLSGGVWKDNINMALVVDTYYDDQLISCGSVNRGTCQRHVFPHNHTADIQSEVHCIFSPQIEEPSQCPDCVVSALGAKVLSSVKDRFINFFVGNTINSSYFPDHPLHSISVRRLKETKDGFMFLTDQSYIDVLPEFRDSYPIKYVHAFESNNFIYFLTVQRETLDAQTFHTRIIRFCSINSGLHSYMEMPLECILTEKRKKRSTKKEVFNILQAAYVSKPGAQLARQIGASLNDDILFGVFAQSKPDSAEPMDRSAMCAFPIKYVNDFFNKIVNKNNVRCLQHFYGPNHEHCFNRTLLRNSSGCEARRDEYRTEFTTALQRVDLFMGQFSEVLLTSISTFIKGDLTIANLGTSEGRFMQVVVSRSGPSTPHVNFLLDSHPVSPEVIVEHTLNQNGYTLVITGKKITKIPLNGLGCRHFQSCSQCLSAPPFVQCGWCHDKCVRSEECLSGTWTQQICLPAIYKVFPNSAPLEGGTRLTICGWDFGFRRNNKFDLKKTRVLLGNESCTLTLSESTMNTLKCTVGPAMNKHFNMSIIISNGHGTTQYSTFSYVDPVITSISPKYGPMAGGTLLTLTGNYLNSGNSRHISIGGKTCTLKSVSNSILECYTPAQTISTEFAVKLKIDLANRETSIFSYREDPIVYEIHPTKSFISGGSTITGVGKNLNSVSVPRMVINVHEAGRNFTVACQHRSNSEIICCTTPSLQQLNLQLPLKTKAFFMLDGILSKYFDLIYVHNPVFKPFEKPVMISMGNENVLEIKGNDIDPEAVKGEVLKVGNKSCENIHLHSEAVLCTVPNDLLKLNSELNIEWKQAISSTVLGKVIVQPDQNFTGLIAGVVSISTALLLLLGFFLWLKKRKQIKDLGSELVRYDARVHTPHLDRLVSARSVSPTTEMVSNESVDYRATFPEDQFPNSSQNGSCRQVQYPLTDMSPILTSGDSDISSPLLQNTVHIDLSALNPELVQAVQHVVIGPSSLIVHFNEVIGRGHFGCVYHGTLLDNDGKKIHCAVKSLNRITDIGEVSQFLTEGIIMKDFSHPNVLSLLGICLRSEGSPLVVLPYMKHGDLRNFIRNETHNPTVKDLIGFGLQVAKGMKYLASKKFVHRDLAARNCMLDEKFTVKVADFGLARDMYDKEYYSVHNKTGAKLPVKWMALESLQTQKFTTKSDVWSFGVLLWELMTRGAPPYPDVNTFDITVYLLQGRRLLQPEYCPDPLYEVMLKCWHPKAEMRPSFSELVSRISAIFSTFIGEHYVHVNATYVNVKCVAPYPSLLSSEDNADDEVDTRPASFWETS

| SMILES | IC50 (MCF7) [µM] | IC50 (A549) [µM] | IC50 (HepG2) [µM] | IC50 [1] [µM] |
| --- | --- | --- | --- | --- |
| Cc1cc(=O)n(-c2ccccc2C(F)(F)F)nc1C(=O)Nc1ccc(Oc2ncnc3ccsc23)c(F)c1 | 6.02 | 4.68 | 9.38 |  |
| O=C(Nc1ccc(Oc2ncnc3ccsc23)c(F)c1)c1nn(-c2ccccc2)ccc1=O | 12.4 | 19.7 | 13.5 |  |
| Cc1cc(=O)n(-c2ccc(F)c(F)c2)nc1C(=O)Nc1ccc(Oc2ncnc3ccsc23)cc1 | 5.55 | 8.18 | 9.23 |  |
| CNC(=O)c1cc(Oc2ccc(NC(=O)c3nn(-c4ccc(Br)cc4F)c(=O)cc3C)cc2F)ccn1 | 9.36 | 7.93 | 2.83 |  |
| Cc1cc(=O)n(-c2cccc(F)c2)nc1C(=O)Nc1ccc(Oc2ncnc3ccsc23)c(F)c1 | 9.05 | 5.22 | 7.81 |  |
| Cc1cc(=O)n(-c2cccc(F)c2)nc1C(=O)Nc1ccc(Oc2ncnc3sccc23)c(F)c1 | 17.3 | 19.5 | 24.4 |  |
| Cc1cc(=O)n(-c2ccccc2C(F)(F)F)nc1C(=O)Nc1ccc(Oc2ncnc3ccsc23)cc1 | 5.55 | 8.85 | 9.23 |  |
| Cc1cc(=O)n(-c2ccccc2C(F)(F)F)nc1C(=O)Nc1ccc(Oc2ncnc3sccc23)c(F)c1 | 13.8 | 16.3 | 14.7 |  |
| Cc1cc(=O)n(-c2ccccc2OC(F)(F)F)nc1C(=O)Nc1ccc(Oc2ncnc3sccc23)c(F)c1 | > 40 | > 40 | > 40 |  |
| Cc1ccc(-n2nc(C(=O)Nc3ccc(Oc4ncnc5sccc45)cc3)c(C)cc2=O)cc1 | > 40 | > 40 | > 40 |  |
| Cc1cc(=O)n(-c2ccccc2C(F)(F)F)nc1C(=O)Nc1ccc(Oc2ncnc3sccc23)cc1 | > 40 | 19.9 | > 40 |  |
| CNC(=O)c1cc(Oc2ccc(NC(=O)c3nn(-c4ccc(C)cc4)c(=O)cc3C)cc2F)ccn1 | 8.38 | 11.5 | 10.6 |  |
| Cc1cc(=O)n(-c2ccc(F)c(F)c2)nc1C(=O)Nc1ccc(Oc2ncnc3sccc23)cc1 | 16.1 | 13.5 | 16.8 |  |
| O=C(Nc1ccc(Oc2ncnc3ccsc23)c(F)c1)c1nn(-c2ccc(Br)cc2)ccc1=O | 9.62 | 7.84 | 10.7 |  |
| Cc1cc(=O)n(-c2ccccc2OC(F)(F)F)nc1C(=O)Nc1ccc(Oc2ncnc3ccsc23)c(F)c1 | 11.5 | 5.72 | 15.7 |  |
| Cc1ccc(-n2ccc(=O)c(C(=O)Nc3ccc(Oc4ncnc5ccsc45)c(F)c3)n2)cc1 | 23.2 | 11.6 | 24.2 |  |
| Cc1cc(=O)n(-c2ccc(F)cc2)nc1C(=O)Nc1ccc(Oc2ncnc3sccc23)cc1 | 21 | 7.05 | 6.46 |  |
| Cc1ccc(-n2nc(C(=O)Nc3ccc(Oc4ncnc5ccsc45)c(F)c3)c(C)cc2=O)cc1 | 7.25 | 5.89 | 17.2 |  |
| CNC(=O)c1cc(Oc2ccc(NC(=O)c3nn(-c4ccccc4OC(F)(F)F)c(=O)cc3C)cc2F)ccn1 | > 40 | > 40 | > 40 |  |
| Cc1cc(=O)n(-c2ccccc2OC(F)(F)F)nc1C(=O)Nc1ccc(Oc2ncnc3ccsc23)cc1 | 23.8 | 10.1 | 25 |  |

| SMILES | IC50 (MCF7) [µM] | IC50 (A549) [µM] | IC50 (HepG2) [µM] | IC50 [1] [µM] |
| --- | --- | --- | --- | --- |
| Cc1cc(=O)n(-c2ccc(Br)cc2F)nc1C(=O)Nc1ccc(Oc2ncnc3sccc23)c(F)c1 | 13.2 | 11.5 | 13.8 |  |
| CNC(=O)c1cc(Oc2ccc(NC(=O)c3nn(-c4cccc(F)c4)c(=O)cc3C)cc2F)ccn1 | 6.41 | 9.54 | 10.2 |  |
| Cc1cc(=O)n(-c2ccc(F)cc2)nc1C(=O)Nc1ccc(Oc2ncnc3ccsc23)cc1 | 4.4 | 2.36 | 2.11 | 0.048 |
| Cc1cc(=O)n(-c2ccc(F)c(F)c2)nc1C(=O)Nc1ccc(Oc2ncnc3sccc23)c(F)c1 | 20.6 | 15.7 | > 40 |  |
| Cc1cc(=O)n(-c2ccc(Br)cc2F)nc1C(=O)Nc1ccc(Oc2ncnc3ccsc23)c(F)c1 | 1.55 | 2.98 | 3.35 | 0.032 |
| Cc1cc(=O)n(-c2ccc(Br)cc2F)nc1C(=O)Nc1ccc(Oc2ncnc3ccsc23)cc1 | 9.36 | 7.93 | 10.6 |  |
| CNC(=O)c1cc(Oc2ccc(NC(=O)c3nn(-c4ccccc4F)c(=O)cc3C)cc2F)ccn1 | > 40 | > 40 | > 40 |  |
| Cc1ccc(-n2nc(C(=O)Nc3ccc(Oc4ncnc5ccsc45)cc3)c(C)cc2=O)c(C)c1 | 11.9 | 16.4 | 17.9 |  |
| CNC(=O)c1cc(Oc2ccc(NC(=O)c3nn(-c4ccccc4C(F)(F)F)c(=O)cc3C)cc2F)ccn1 | 35.7 | > 40 | > 40 |  |
| Cc1ccc(-n2nc(C(=O)Nc3ccc(Oc4ncnc5ccsc45)cc3)c(C)cc2=O)cc1 | 23.8 | 11.5 | 25 |  |
| Cc1cc(=O)n(-c2ccc(Br)cc2F)nc1C(=O)Nc1ccc(Oc2ncnc3sccc23)cc1 | 15.2 | 12.8 | 6.3 |  |
| Cc1cc(=O)n(-c2cccc(F)c2)nc1C(=O)Nc1ccc(Oc2ncnc3ccsc23)cc1 | 6.41 | 9.54 | 10.2 |  |
| Cc1cc(=O)n(-c2ccccc2OC(F)(F)F)nc1C(=O)Nc1ccc(Oc2ncnc3sccc23)cc1 | 11 | 15.5 | 14.4 |  |
| Cc1cc(=O)n(-c2ccc(F)cc2)nc1C(=O)Nc1ccc(Oc2ncnc3sccc23)c(F)c1 | 12.3 | 2.62 | 12.5 |  |
| Cc1ccc(-n2nc(C(=O)Nc3ccc(Oc4ncnc5sccc45)c(F)c3)c(C)cc2=O)cc1 | > 40 | > 40 | > 40 |  |
| Cc1cc(=O)n(-c2cccc(F)c2)nc1C(=O)Nc1ccc(Oc2ncnc3sccc23)cc1 | 27.2 | 16.4 | 18.5 |  |
| O=C(Nc1ccc(Oc2ncnc3ccsc23)c(F)c1)c1nn(-c2ccc(F)cc2)ccc1=O | 5.72 | 8.23 | 9.16 |  |
| O=C(Nc1ccc(Oc2ncnc3ccsc23)c(F)c1)c1nn(-c2ccc(F)c(Cl)c2)ccc1=O | 6.63 | 9.65 | 10.6 |  |
| Cc1cc(=O)n(-c2ccc(F)c(F)c2)nc1C(=O)Nc1ccc(Oc2ncnc3ccsc23)c(F)c1 | 6.9 | 4.59 | 6.93 |  |
